From patent US11358952B2, “Substituted 4-aminoisoindoline-1,3-dione compounds, compositions thereof, and methods of treatment therewith” (Celgene Corporation, priority 2018, dated 2022)

What follows are molecules tested on SU-DHL-4 cell line (assay: SU-DHL-4 cell proliferation assay (Cell Titer-Glo viability)). Details: Homo sapiens; cell viability IC50 activity level, DLBCL cell line SU-DHL-4, 120 hours post-treatment; read-out: SU-DHL-4 Act.
Format: cell-based
In short: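 SU-DHL-4 cells (500/well, RPMI-1640 + 10% FBS) exposed to 20-point compound dilutions (0.5 nM–10 μM, 0.1% DMSO) for 120 h at 37°C, 5% CO2. Viability measured by Cell Titer-Glo luminescence at t0 and at 120 h. IC50 is the concentration giving 50% of DMSO control, from a four-parameter logistic fit.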

Row | Structure (SMILES) | IC50 [µM]
1 | NC(=O)c1ccc(N2CCN(Cc3ccc(CNc4cccc5c4C(=O)N(C4CCC(=O)NC4=O)C5=O)c(F)c3)CC2)cn1 (centres unmarked) [Cpd 110, 5-(4-(4-((2-(2,6-dioxopiperidin-3-yl)-1,3-dioxoisoindolin-4-ylamino)methyl)-3-fluorobenzyl)piperazin-1-yl)picolinamide] | < 0.2
2 | O=C1CCC(N2C(=O)c3cccc(NCc4ccc(CN5CCC(O)(c6ccccn6)CC5)cc4)c3C2=O)C(=O)N1 (centres unmarked) [Cpd 111, 2-(2,6-dioxopiperidin-3-yl)-4-(4-((4-hydroxy-4-(pyridin-2-yl)piperidin-1-yl)methyl)benzylamino)isoindoline-1,3-dione] | < 0.2
3 | CCC1CN(Cc2ccc(CNc3cccc4c3C(=O)N(C3CCC(=O)NC3=O)C4=O)cc2)C1 (centres unmarked) [Cpd 112, 2-(2,6-dioxopiperidin-3-yl)-4-(4-((3-ethylazetidin-1-yl)methyl)benzylamino)isoindoline-1,3-dione] | 0.2 to 0.5
4 | CC(C)C1CN(Cc2ccc(CNc3cccc4c3C(=O)N(C3CCC(=O)NC3=O)C4=O)cc2)C1 (centres unmarked) [Cpd 113, 2-(2,6-dioxopiperidin-3-yl)-4-(4-((3-isopropylazetidin-1-yl)methyl)benzylamino)isoindoline-1,3-dione] | 0.2 to 0.5
5 | CC(C)(C)C1CN(Cc2ccc(CNc3cccc4c3C(=O)N(C3CCC(=O)NC3=O)C4=O)cc2)C1 (centres unmarked) [Cpd 114, 4-(4-((3-tert-butylazetidin-1-yl)methyl)benzylamino)-2-(2,6-dioxopiperidin-3-yl)isoindoline-1,3-dione] | < 0.2
6 | O=C1CCC(N2C(=O)c3cccc(NCc4ccc(CN5CC6(CCC6)C5)cc4)c3C2=O)C(=O)N1 (centres unmarked) [Cpd 115, 4-(4-(2-azaspiro[3.3]heptan-2-ylmethyl)benzylamino)-2-(2,6-dioxopiperidin-3-yl)isoindoline-1,3-dione] | < 0.2
7 | O=C1CCC(N2C(=O)c3cccc(NCc4ccc(CN5CC6(C5)CC(F)(F)C6)cc4)c3C2=O)C(=O)N1 (centres unmarked) [Cpd 116, 4-(4-((6,6-difluoro-2-azaspiro[3.3]heptan-2-yl)methyl)benzylamino)-2-(2,6-dioxopiperidin-3-yl)isoindoline-1,3-dione] | 0.751 to 1
8 | O=C1CCC(N2C(=O)c3cccc(NCc4ccc(CN5CC(C(F)(F)F)C5)cc4)c3C2=O)C(=O)N1 (centres unmarked) [Cpd 117, 2-(2,6-dioxopiperidin-3-yl)-4-(4-((3-(trifluoromethyl)azetidin-1-yl)methyl)benzylamino)isoindoline-1,3-dione] | 0.2 to 0.5
9 | O=C1CCC(N2C(=O)c3cccc(NCc4ccc(CN5CCN(CC6CC6)CC5)cc4F)c3C2=O)C(=O)N1 (centres unmarked) [Cpd 118, 4-(4-((4-(cyclopropylmethyl)piperazin-1-yl)methyl)-2-fluorobenzylamino)-2-(2,6-dioxopiperidin-3-yl)isoindoline-1,3-dione] | < 0.2
10 | O=C1CCC(N2C(=O)c3cccc(NCc4ccc(CN5CCN(c6ccc(C(F)(F)F)cn6)CC5)cc4)c3C2=O)C(=O)N1 (centres unmarked) [Cpd 119, 2-(2,6-dioxopiperidin-3-yl)-4-(4-((4-(5-(trifluoromethyl)pyridin-2-yl)piperazin-1-yl)methyl)benzylamino)isoindoline-1,3-dione] | 0.2 to 0.5
11 | N#Cc1cccc(C2CN(Cc3ccc(CNc4cccc5c4C(=O)N(C4CCC(=O)NC4=O)C5=O)cc3F)C2)c1 (centres unmarked) [Cpd 120, 3-(1-(4-((2-(2,6-dioxopiperidin-3-yl)-1,3-dioxoisoindolin-4-ylamino)methyl)-2-fluorobenzyl)azetidin-3-yl)benzonitrile] | < 0.2
12 | N#Cc1cccc(C2CN(Cc3ccc(CNc4cccc5c4C(=O)N(C4CCC(=O)NC4=O)C5=O)c(F)c3)C2)c1 (centres unmarked) [Cpd 121, 3-(1-(4-((2-(2,6-dioxopiperidin-3-yl)-1,3-dioxoisoindolin-4-ylamino)methyl)-3-fluorobenzyl)azetidin-3-yl)benzonitrile] | < 0.2
13 | CN1CCC2(CCN(Cc3ccc(CNc4cccc5c4C(=O)N(C4CCC(=O)NC4=O)C5=O)cc3)CC2)C1=O (centres unmarked) [Cpd 122, 2-(2,6-dioxopiperidin-3-yl)-4-(4-((2-methyl-1-oxo-2,8-diazaspiro[4.5]decan-8-yl)methyl)benzylamino)isoindoline-1,3-dione] | 0.2 to 0.5
14 | O=C1CCC(N2C(=O)c3cccc(NCc4ccc(CN5CCC(OC(F)(F)F)CC5)cc4)c3C2=O)C(=O)N1 (centres unmarked) [Cpd 123, 2-(2,6-dioxopiperidin-3-yl)-4-(4-((4-(trifluoromethoxy)piperidin-1-yl)methyl)benzylamino)isoindoline-1,3-dione] | 0.2 to 0.5
15 | CCCOC1CCN(Cc2ccc(CNc3cccc4c3C(=O)N(C3CCC(=O)NC3=O)C4=O)cc2)CC1 (centres unmarked) [Cpd 124, 2-(2,6-dioxopiperidin-3-yl)-4-(4-((4-propoxypiperidin-1-yl)methyl)benzylamino)isoindoline-1,3-dione] | 0.501 to 0.75
16 | CC(C)COC1CCN(Cc2ccc(CNc3cccc4c3C(=O)N(C3CCC(=O)NC3=O)C4=O)cc2)CC1 (centres unmarked) [Cpd 125, 2-(2,6-dioxopiperidin-3-yl)-4-(4-((4-isobutoxypiperidin-1-yl)methyl)benzylamino)isoindoilne-1,3-dione] | 0.2 to 0.5

Row | Structure (SMILES) | IC50 [µM]
17 | O=C1CCC(N2C(=O)c3cccc(NCc4ccc(CN5CCC(OC6CCC6)CC5)cc4)c3C2=O)C(=O)N1 (centres unmarked) [Cpd 126] | 0.2 to 0.5
18 | O=C1CCC(N2C(=O)c3cccc(NCc4ccc(CN5CCC(OCC6CC6)CC5)cc4)c3C2=O)C(=O)N1 (centres unmarked) [Cpd 127, 4-(4-((4-(cyclopropylmethoxy)piperidin-1-yl)methyl)benzylamino)-2-(2,6-dioxopiperidin-3-yl)isoindoline-1,3-dione] | 0.751 to 1
19 | CCC1(OC)CCN(Cc2ccc(CNc3cccc4c3C(=O)N(C3CCC(=O)NC3=O)C4=O)cc2)CC1 (centres unmarked) [Cpd 128, 2-(2,6-dioxopiperidin-3-yl)-4-(4-((4-ethyl-4-methoxypiperidin-1-yl)methyl)benzylamino)isoindoline-1,3-dione] | 0.2 to 0.5
20 | CC1(C)CCC2(CCN(Cc3ccc(CNc4cccc5c4C(=O)N(C4CCC(=O)NC4=O)C5=O)cc3)CC2)O1 (centres unmarked) [Cpd 129, 4-(4-((2,2-dimethyl-1-oxa-8-azaspiro[4.5]decan-8-yl)methyl)benzylamino)-2-(2,6-dioxopiperidin-3-yl)isoindoline-1,3-dione] | < 0.2
21 | O=C1CCC(N2C(=O)c3cccc(NCc4ccc(CN5CCC(O)(C(F)(F)F)CC5)cc4)c3C2=O)C(=O)N1 (centres unmarked) [Cpd 130, 2-(2,6-dioxopiperidin-3-yl)-4-(4-((4-hydroxy-4-(trifluoromethyl)piperidin-1-yl)methyl)benzylamino)isoindoline-1,3-dione] | 0.751 to 1
22 | O=C1CCC(N2C(=O)c3cccc(NCc4ccc(CN5CCC(O)(C6CC6)CC5)cc4)c3C2=O)C(=O)N1 (centres unmarked) [Cpd 131, 4-(4-((4-cyclopropyl-4-hydroxypiperidin-1-yl)methyl)benzylamino)-2-(2,6-dioxopiperidin-3-yl)isoindoline-1,3-dione] | 0.2 to 0.5
23 | O=C1CCC(N2C(=O)c3cccc(NCc4ccc(CN5CCC(Oc6ccccn6)CC5)cc4)c3C2=O)C(=O)N1 (centres unmarked) [Cpd 132, 2-(2,6-dioxopiperidin-3-yl)-4-(4-((4-(pyridin-2-yloxy)piperidin-1-yl)methyl)benzylamino)isoindoline-1,3-dione] | 0.751 to 1
24 | CCS(=O)(=O)N1CCN(Cc2ccc(CNc3cccc4c3C(=O)N(C3CCC(=O)NC3=O)C4=O)cc2)CC1 (centres unmarked) [Cpd 133, 2-(2,6-dioxopiperidin-3-yl)-4-(4-((4-(ethylsulfonyl)piperazin-1-yl)methyl)benzylamino)isoindoline-1,3-dione] | 0.2 to 0.5
25 | CC(C)(C)C1CN(Cc2ccc(CNc3cccc4c3C(=O)N(C3CCC(=O)NC3=O)C4=O)c(F)c2)C1 (centres unmarked) [Cpd 134, 4-(4-((3-tert-butylazetidin-1-yl)methyl)-2-fluorobenzylamino)-2-(2,6-dioxopiperidin-3-yl)isoindoline-1,3-dione] | < 0.2
26 | O=C1CCC(N2C(=O)c3cccc(NCc4ccc(CN5CC6(CC6)C5)cc4F)c3C2=O)C(=O)N1 (centres unmarked) [Cpd 135, 4-(4-(5-azaspiro[2.3]hexan-5-ylmethyl)-2-fluorobenzylamino)-2-(2,6-dioxopiperidin-3-yl)isoindoline-1,3-dione] | 0.2 to 0.5
27 | COc1cc(N2CCN(Cc3ccc(CNc4cccc5c4C(=O)N(C4CCC(=O)NC4=O)C5=O)cc3)CC2)ncn1 (centres unmarked) [Cpd 136, 2-(2,6-dioxopiperidin-3-yl)-4-(4-((4-(6-methoxypyrimidin-4-yl)piperazin-1-yl)methyl)benzylamino)isoindoline-1,3-dione] | 0.751 to 1
28 | O=C1CCC(N2C(=O)c3cccc(NCc4ccc(CN5CC6(CCC6)C5)cc4F)c3C2=O)C(=O)N1 (centres unmarked) [Cpd 137, 4-(4-(2-azaspiro[3.3]heptan-2-ylmethyl)-2-fluorobenzylamino)-2-(2,6-dioxopiperidin-3-yl)isoindoline-1,3-dione] | < 0.2
29 | N#Cc1cccc(N2CCN(Cc3ccc(CNc4cccc5c4C(=O)N(C4CCC(=O)NC4=O)C5=O)cc3)CC2)n1 (centres unmarked) [Cpd 138, 6-(4-(4-((2-(2,6-dioxopiperidin-3-yl)-1,3-dioxoisoindolin-4-ylamino)methyl)benzyl)piperazin-1-yl)picolinonitrile] | 0.501 to 0.75
30 | NC(=O)c1ccc(N2CCN(Cc3ccc(CNc4cccc5c4C(=O)N(C4CCC(=O)NC4=O)C5=O)c(F)c3)CC2)cc1 (centres unmarked) [Cpd 139, 4-(4-(4-((2-(2,6-dioxopiperidin-3-yl)-1,3-dioxoisoindolin-4-ylamino)methyl)-3-fluorobenzyl)piperazin-1-yl)benzamide] | < 0.2
31 | CN(C)C(=O)c1ccc(N2CCN(Cc3ccc(CNc4cccc5c4C(=O)N(C4CCC(=O)NC4=O)C5=O)c(F)c3)CC2)cn1 (centres unmarked) [Cpd 140, 5-(4-(4-((2-(2,6-dioxopiperidin-3-yl)-1,3-dioxoisoindolin-4-ylamino)methyl)-3-fluorobenzyl)piperazin-1-yl)-N,N-dimethylpicolinamide] | 0.2 to 0.5
32 | NC(=O)c1ccc(N2CCN(Cc3ccc(CNc4cccc5c4C(=O)N(C4CCC(=O)NC4=O)C5=O)cc3F)CC2)cc1 (centres unmarked) [Cpd 141, 4-(4-(4-((2-(2,6-dioxopiperidin-3-yl)-1,3-dioxoisoindolin-4-ylamino)methyl)-2-fluorobenzyl)piperazin-1-yl)benzamide] | < 0.2
